From PMC9259591, “Irigenin, a novel lead from Iris confusa for management of Helicobacter pylori infection with selective COX-2 and HpIMPDH inhibitory potential” (Scientific Reports, 2022)
Values after ≈ are worked out from the molar mass of the structure shown. Values joined by “and” are separate entries in the source; they are usually repeats but may differ in a detail not shown here. Identical values can stand only once. Like-named read-outs stand apart in the source and are kept apart here.

Experiments:
[1] = molecular target: T1, H. pylori inosine-5′-monophosphate dehydrogenase (HpIMPDH) (Helicobacter pylori, UniProt P56088); test: In vitro HpIMPDH inhibition assay (NADH fluorescence); type: biochemical; design: HpIMPDH inhibitory activity: unit not given here
T1 sequence (P56088 1-481): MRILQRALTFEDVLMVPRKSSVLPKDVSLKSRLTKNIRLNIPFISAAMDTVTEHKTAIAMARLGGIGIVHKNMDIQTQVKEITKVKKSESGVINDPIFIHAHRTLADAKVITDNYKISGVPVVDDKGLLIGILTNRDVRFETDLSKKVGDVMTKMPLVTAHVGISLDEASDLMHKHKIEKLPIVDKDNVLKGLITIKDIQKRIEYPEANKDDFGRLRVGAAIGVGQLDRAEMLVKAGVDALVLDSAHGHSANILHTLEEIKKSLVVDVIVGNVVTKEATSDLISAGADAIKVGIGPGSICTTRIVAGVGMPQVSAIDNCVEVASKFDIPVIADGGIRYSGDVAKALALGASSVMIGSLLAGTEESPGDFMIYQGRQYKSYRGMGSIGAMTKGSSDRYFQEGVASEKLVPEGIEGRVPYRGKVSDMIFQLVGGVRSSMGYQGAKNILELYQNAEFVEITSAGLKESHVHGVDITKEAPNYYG
Experimental: The assay was carried out according to Galal[40] and was described in detail in the supplementary file.
(§1) Thus, irigenin was selected to test its HpIMPDH inhibitory activity by monitoring NADH production at concentration range of 10–0.078 µM compared to clarithromycin as standard drug. Also, to examine irigenin selectivity toward the bacterial IMPDH, human hIMPDH2 inhibition potential was assayed.
The assay was carried out in a final volume of two hundred μL in black 96-well plate (Tarsons Products Pvt. Ltd., Kolkata, India) with a reaction buffer composed of one hundred mM KCl, fifty mM Tris–HCl (pH 8.6), and one mM dithiothreitol (DTT). One hundred nM H. pylori inosine-5′-monophosphate dehydrogenase (HpIMPDH) in the presence/absence of the tested compound were used. The assay mixture was then incubated at 37 °C for 10 min, and the reaction was initiated by the adding 250 μM of inosine 5ʹ‐monophosphate (IMP) and 300 μM of nicotinamide adenine dinucleotide (NAD^+) substrate buffer. The assay was allowed to proceed for 45 min at 37 °C.
The formed NADH was measured by recording the fluorescence (excitation 340 nm, emission 440 nm) using PerkinElmer EnVision Multilabel Reader (Waltham, MA) at an interval of one min. DMSO and clarithromycin were used as vehicle control and positive control, respectively. The concentration of the tested sample leading to 50% HpIMPDH inhibition (IC50) was estimated.

[2] = molecular target: T2, Human inosine-5′-monophosphate dehydrogenase (hIMPDH2) (Homo sapiens, UniProt P12268); test: In vitro hIMPDH2 inhibition assay (NADH absorbance at 340 nm); type: biochemical; design: key to hIMPDH2 inhibitory activity: % hIMPDH2 inhibition; settings: for hIMPDH2 inhibitory activity: in % (unit assumed)
T2 construct: purchased NovoCIB SAS (Lyon, France)
Experimental: Human inosine-5′-monophosphate dehydrogenase (hIMPDH2) was purchased from NovoCIB SAS (Lyon, France). […] The detailed procedures were described in the supplementary file.
as §1
Human inosine-5′-monophosphate dehydrogenase (hIMPDH2) was purchased from NovoCIB SAS (Lyon, France). […] The assay was carried out in 96-well plates (Tarsons, 980040). The reaction buffer consisted of hundred mM KCl, hundred mM Tris–HCl (pH 8.6), and five mM DTT, 4% v/v DMSO with or without the tested compound and 0.15 mU of purified hIMPDH2 enzyme per well (from 1.5 mg/mL stock concentration). The enzyme stock solution final volume was 2 μL per well, which was insignificant to cause final assay buffer composition change. Addition of (substrate buffer) 0.2 mM of IMP and 0.2 mM of NAD^+ initiated the assay, then it was allowed to proceed for 30 min at 37 °C. The formed NADH was measured by reading the absorbance at 340 nm. […] The concentration of the tested sample leading to 50% hIMPDH2 inhibition (IC50) was estimated.

H. pylori ATCC 700392 = test: anti-Helicobacter pylori activity, microwell dilution method with MTT; type: cell-based
Experimental: The anti-Helicobacter pylori activity of the PF and NPF as well as the isolated compounds was evaluated against H. pylori ATCC 700392 (type strain, obtained from the American Type Culture Collection unit (ATCC), using microwell dilution method and clarithromycin as standard drug[37]. The detailed procedures were described in the supplementary file.
The anti-Helicobacter pylori activity of the PF and NPF as well as the isolated compounds was evaluated against H. pylori ATCC 700392 (a type strain, obtained from the American Type Culture Collection unit (ATCC), using microwell dilution method and clarithromycin as standard drug ^1. The tested samples were prepared in dimethyl sulfoxide and successive ten twofold dilutions (125- 0.24 µg/mL) were carried out in a 96-well plate. Each microplate well included forty μL of Brain Heart Infusion growth medium and 10% fetal bovine serum (FBS), ten μL of inoculum and fifty μL of the tested sample. The plates were incubated for 3 days, in 5% oxygen, 10% carbon dioxide, 85 % nitrogen atmosphere at 37°C. Forty μL of 3- (4, 5-dimethyl-thiazol-2-yl)- 2,5-diphenyl-tetrazolium bromide (MTT) at a final concentration of 0.5 mg/mL freshly prepared in H2O was added to each well and incubated for 30 min. The bacteria were biologically active when change to purple color was observed ^1. While no change in MTT color indicated inhibition. Solvent control (DMSO) and the standard antibiotic (clarithromycin) were used as negative and positive controls, respectively. The H. pylori inhibition % was calculated using the given formula:
% Inhibition = Abs control – Abs sample × 100 /Abs control.

[3] = tested on: RAW 264.7 macrophage cell line (NO); test: nitric oxide (NO) inhibitory activity in lipopolysaccharide-stimulated macrophages; type: cell-based, murine; settings: Mus musculus, RAW264.7; RAW 264.7 cells, 1 µg/mL lipopolysaccharide
Experimental: The detailed procedures were described in the supplementary file.
The cell was incubated at 37 °C in 5% carbon dioxide. RAW 264.7 cells were seeded onto a 96-well plate (1×10^5 cells/well) and incubated for 24 h. […] Followed by incubation, the cells stimulated with 1µg/mL of lipopolysaccharide for another 24 h. The supernatant was gently transferred to new 96-well plates and used for NO determination. L-N 6 - (1-iminoethyl) lysine hydrochloride), is used as standard drug. The absorbance (Abs) was measured in a microplate reader at 540 nm ^3. The percentage inhibition was calculated using the following formula:
Inhibition (%) = 1-[Control-Test] Control × 100.

human recombinant COX-2 = molecular target: T3, human recombinant COX-2 (Homo sapiens, UniProt P35354); test: COX-2 inhibitory activity, colourimetric COX inhibitor screening assay kit; type: biochemical; settings: for SI (COX-1/COX-2): selectivity index calculated as IC50 (COX-1)/(COX-2)
T3 construct: purchased
T3 sequence (P35354 18-604): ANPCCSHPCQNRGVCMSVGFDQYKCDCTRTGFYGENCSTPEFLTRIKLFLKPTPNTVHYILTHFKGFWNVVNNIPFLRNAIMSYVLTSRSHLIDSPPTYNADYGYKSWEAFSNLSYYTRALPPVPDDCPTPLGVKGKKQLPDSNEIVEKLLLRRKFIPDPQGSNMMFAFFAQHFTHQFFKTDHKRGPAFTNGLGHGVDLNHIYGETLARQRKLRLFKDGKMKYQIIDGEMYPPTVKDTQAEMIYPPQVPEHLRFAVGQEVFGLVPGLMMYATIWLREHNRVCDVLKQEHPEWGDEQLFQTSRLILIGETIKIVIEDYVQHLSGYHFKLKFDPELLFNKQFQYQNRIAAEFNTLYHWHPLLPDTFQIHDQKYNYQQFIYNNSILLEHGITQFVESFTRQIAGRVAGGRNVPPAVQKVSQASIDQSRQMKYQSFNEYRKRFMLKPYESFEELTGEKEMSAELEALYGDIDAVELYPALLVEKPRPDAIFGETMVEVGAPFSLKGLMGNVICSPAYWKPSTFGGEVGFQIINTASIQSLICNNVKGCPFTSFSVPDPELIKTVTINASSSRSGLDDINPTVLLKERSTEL
Experimental: (§2) The inhibitory COX activity was assayed colourimetrically by examining the inhibition of the ovine COX-1 and human recombinant COX-2 enzymes as described by George et al.[38], using a COX inhibitor screening assay kit. The detailed procedures were described in the supplementary file.
(§3) The inhibitory COX activity was assayed colourimetrically by examining the inhibition of the ovine COX-1 and human recombinant COX-2 enzymes as described by George et al. ^2, using a COX inhibitory screening assay kit. This assay determines the COX peroxidase activity by monitoring the appearance of N,N,N',N'-tetramethyl-p-phenylenediamine (TMPD). Assay buffer (150 μL 0.1 M Tris–HCl pH 8.0), 10 μL heme and 10μL enzyme (COX-1 or COX-2) were added in each well. Ten μL of each tested sample concentration was added to each well and incubated for 15 minutes at 37°C. After incubation, 20 μL of TMPD was added to each well. For initiating the reaction, 10 μL 10 mM arachidonic acid was added and the plates were further incubated for another 2 minutes at 37°C. For terminating the reaction, 50 μL 1 N HCl and saturated stannous chloride were added.
(§4) Reaction mixture containing assay buffer and heme acted as the blank and a mixture with either COX-1 or COX-2 assay buffer and heme acted as the 100% initial activity (IA). […] The absorbances of oxidized TMPD (blue colour) were read in ELISA plate reader at 590 nm. The % inhibition was calculated using the following formula:
(§5) COX % Inhibition= [(100%IA−Inhibitor)/ 100% IA x 100]. Where, IA: 100% initial activity.
(§6) The concentration at which the tested sample produces 50% inhibition of COX-1 and/or COX-2 (IC50) was determined. The selectivity index (SI) was calculated also as IC50 (COX-1)/ (COX-2).

ovine COX-1 = molecular target: T4, ovine COX-1 (Ovis aries, UniProt P05979); test: COX-1 inhibitory activity, colourimetric COX inhibitor screening assay kit; type: biochemical; settings: ovine COX-1
T4 construct: purchased
T4 sequence (P05979 25-600): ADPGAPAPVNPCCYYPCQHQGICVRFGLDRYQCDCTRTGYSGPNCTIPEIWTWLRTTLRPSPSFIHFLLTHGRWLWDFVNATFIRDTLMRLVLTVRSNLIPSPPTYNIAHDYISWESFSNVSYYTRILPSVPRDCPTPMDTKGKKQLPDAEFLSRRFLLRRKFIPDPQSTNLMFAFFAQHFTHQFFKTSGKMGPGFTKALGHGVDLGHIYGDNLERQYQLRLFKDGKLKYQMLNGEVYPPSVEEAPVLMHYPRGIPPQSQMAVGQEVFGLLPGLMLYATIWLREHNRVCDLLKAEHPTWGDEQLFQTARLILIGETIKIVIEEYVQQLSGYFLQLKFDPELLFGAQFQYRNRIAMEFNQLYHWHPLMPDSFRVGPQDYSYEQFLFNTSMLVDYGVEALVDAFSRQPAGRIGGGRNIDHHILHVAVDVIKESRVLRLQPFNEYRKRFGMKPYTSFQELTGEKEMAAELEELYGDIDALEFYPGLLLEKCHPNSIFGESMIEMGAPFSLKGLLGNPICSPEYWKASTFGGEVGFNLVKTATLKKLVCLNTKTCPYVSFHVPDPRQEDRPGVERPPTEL
Experimental: as §2, §3, §4, §5, §6

[4] = sample conc. 0.078 (range 10–0.078 µM)
[5] = sample conc. 0.156 (range 10–0.078 µM)
[6] = sample conc. 0.313 (range 10–0.078 µM)
[7] = sample conc. 0.625 (range 10–0.078 µM)
[8] = sample conc. 1.25 (range 10–0.078 µM)
[9] = sample conc. 2.5 (range 10–0.078 µM)
[10] = sample conc. 5 (range 10–0.078 µM)
[11] = sample conc. 10 (range 10–0.078 µM)
[12] = Helicobacter pylori, ATCC700392; read-out: MIC (H. pylori)
[13] = concentration required for 100% inhibition; H. pylori ATCC 700392; ND = not detected

CC[C@H]1OC(=O)[C@H](C)[C@@H](O[C@H]2C[C@@](C)(OC)[C@@H](O)[C@H](C)O2)[C@H](C)[C@@H](O[C@@H]2O[C@H](C)C[C@H](N(C)C)[C@H]2O)[C@](C)(OC)C[C@@H](C)C(=O)[C@H](C)[C@@H](O)[C@]1(C)O [Clarithromycin, clarithromycin, reference compound]
IC50 [1]: 0.51 ± 0.58 µM
HpIMPDH inhibitory activity [1, 4]: 9.14 ± 1.70
HpIMPDH inhibitory activity [1, 5]: 21.82 ± 2.10
HpIMPDH inhibitory activity [1, 6]: 38.25 ± 1.50
HpIMPDH inhibitory activity [1, 7]: 56.06 ± 0.58
HpIMPDH inhibitory activity [1, 8]: 69.31 ± 2.10
HpIMPDH inhibitory activity [1, 9]: 81.22 ± 1.60
HpIMPDH inhibitory activity [1, 10]: 100 ± 0.00
HpIMPDH inhibitory activity [1, 11]: 100 ± 0.00
IC50 [2]: 3.1 ± 2.1 µM
hIMPDH2 inhibitory activity [2, 4]: 0.00
hIMPDH2 inhibitory activity [2, 5]: 0.00
hIMPDH2 inhibitory activity [2, 6]: 9.74 ± 0.67
hIMPDH2 inhibitory activity [2, 7]: 19.35 ± 1.50
hIMPDH2 inhibitory activity [2, 8]: 27.32 ± 1.70
hIMPDH2 inhibitory activity [2, 9]: 46.32 ± 2.20
hIMPDH2 inhibitory activity [2, 10]: 60.24 ± 1.50
hIMPDH2 inhibitory activity [2, 11]: 76.32 ± 0.50
MIC (H. pylori ATCC 700392; [12]): 1.95 µg/mL and 2.61 µM

CC(C)[C@H]1CC[C@H]2[C@@]1(C)CC[C@@]1(C)[C@@H]3CC[C@H]4C(C)(C)[C@@H](O)CC[C@]4(C)C3=CC[C@]21C [Isoarborinol (N1), isoarborinol]
IC50 [3]: 44.3 ± 1.7 µM
IC50 (human recombinant COX-2; human recombinant COX-2): 51.8 ± 2.1 µM
SI (COX-1/COX-2) (human recombinant COX-2): 1.42
IC50 (ovine COX-1; read-out: IC50 (COX-1)): 73.3 ± 1 µM
MIC (H. pylori) (H. pylori ATCC 700392; [13]): no H. pylori inhibitory potential

O=c1cc(-c2ccc(O)c(O)c2)oc2c([C@@H]3O[C@H](CO)[C@@H](O)[C@H](O)[C@H]3O)c(O)cc(O)c12 [Orientin (P2), luteolin-8-C-β-glucopyranoside]
SI (COX-1/COX-2) (human recombinant COX-2): 1.58
MIC (H. pylori ATCC 700392; Helicobacter pylori, ATCC700392, read-out: MIC (H. pylori)): 15.5 µg/mL and 34.6 µM
MIC (H. pylori) (H. pylori ATCC 700392; [13]): 15.53 µg/mL (≈ 34.6 µM)
MIC (H. pylori ATCC 700392; concentration required for 100% inhibition; H. pylori ATCC 700392; read-out: MIC (H. pylori)): 34.64 µM (≈ 15.5 µg/mL)

CC[C@H](/C=C/[C@@H](C)[C@H]1CC[C@H]2[C@@H]3CC=C4C[C@@H](O)CC[C@]4(C)[C@H]3CC[C@]12C)C(C)C [Stigmasterol (N2), stigmasterol]
SI (COX-1/COX-2) (human recombinant COX-2): 1.33
MIC (H. pylori) (H. pylori ATCC 700392; [13]): no H. pylori inhibitory potential

COc1c(O[C@@H]2O[C@H](CO)[C@@H](O)[C@H](O)[C@H]2O)cc2occ(-c3ccc(O)cc3)c(=O)c2c1O [Tectoridin (P1), tectorigenin-7-O-β-D-glucoside]
IC50 (COX-2) (human recombinant COX-2; human recombinant COX-2, ND = not detected): no inhibition
IC50 (COX-1) (ovine COX-1; ND = not detected): no inhibition
MIC (H. pylori ATCC 700392; [12]): > 125 µg/mL and > 270 µM
MIC (H. pylori) (H. pylori ATCC 700392; [13]): > 125 µg/mL
MIC (H. pylori) (H. pylori ATCC 700392; concentration required for 100% inhibition; H. pylori ATCC 700392; ND = not detected; listed as tectoridine (P1)): no activity
